Experiments:
[1] = biological target: Sigma intracellular receptor 2 (Homo sapiens, UniProt Q5BJF2); test: Displacement [3H]-DTG from sigma 2 receptor (unknown origin) expressed in HEK cell membranes
[2] = organism: Homo sapiens; test: Selectivity index, ratio of Ki for displacement [3H]-Pentazocine from sigma 1 receptor (unknown origin) expressed in HEK cell membranes to Ki for [3H]-DTG from sigma 2 receptor (unknown origin) expressed in HEK cell membranes
[3] = biological target: Sigma non-opioid intracellular receptor 1 (Homo sapiens, UniProt Q99720); test: Displacement [3H]-Pentazocine from sigma 1 receptor (unknown origin) expressed in HEK cell membranes
Sigma non-opioid intracellular receptor 1, sequence (Q99720 whole entry): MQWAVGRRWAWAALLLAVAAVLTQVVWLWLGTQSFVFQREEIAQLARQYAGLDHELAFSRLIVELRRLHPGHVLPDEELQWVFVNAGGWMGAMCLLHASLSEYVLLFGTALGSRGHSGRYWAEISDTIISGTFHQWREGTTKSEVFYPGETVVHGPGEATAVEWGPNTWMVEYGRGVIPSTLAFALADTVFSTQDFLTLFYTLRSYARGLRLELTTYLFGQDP

Sigma intracellular receptor 2, sequence (Q5BJF2 whole entry): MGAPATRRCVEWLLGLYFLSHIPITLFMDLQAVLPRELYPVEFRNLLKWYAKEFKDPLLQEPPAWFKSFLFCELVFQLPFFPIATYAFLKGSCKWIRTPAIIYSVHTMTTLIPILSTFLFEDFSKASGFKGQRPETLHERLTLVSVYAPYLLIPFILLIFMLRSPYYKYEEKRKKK

Row | Compound | Ki [1] [nM] | Ratio Ki [2] | Ki ([3]; read-out: Ki) [nM] | Ki ([3]; read-out: pKi (converted)) [nM]
1 | O/N=C(/CCCN1CCCN(c2ccccn2)CC1)c1ccc(F)cc1 | 13.1 | 5.3 | 70 | 
2 | OC1(c2ccc(Cl)cc2)CC2CCC(C1)N2CCCSc1ccccc1F (stereo unspecified) | 2.2 | 25.9 | 57 | 
3 | O=C(CCCN1CCN(c2ccc(Cl)cn2)CC1)c1ccc(F)cc1 | 8.4 | 3 | 25 | 
4 | Fc1ccc(CCCCN2CCN(c3ccc(Cl)cc3)CC2)cc1 |  |  | 36 | 
5 | O/N=C(/CCCN1CCCN(c2ncccn2)CC1)c1ccc(F)cc1 | 26 | 5.7 | 148 | 
6 | Fc1ccc(CCCCN2CCN(c3ccc(Cl)cn3)CC2)cc1 | 43 | 2.2 | 95 | 
7 | [O-][S+](CCCN1CCN(c2ccc(Cl)cc2)CC1)c1ccc(F)cc1 (stereo unspecified) | 600 | 1.9 | 1150 | 
8 | OC1(c2ccc(Cl)cc2)CC2CCC(C1)N2CCCOc1ccc(F)cc1 (stereo unspecified) | 18 |  | 166 | 
9 | c1ccc(OCCCN2CCN(c3ccccc3)CC2)cc1 | 25.1 | 3.1 | 77.1 | 
10 | Fc1ccc(OCCCN2CCN(c3ccccc3)CC2)cc1 | 5.12 | 8.1 | 41.5 | 
11 | Fc1ccc(CCCCN2CCCN(c3ccc(Cl)cc3)CC2)cc1 | 8.5 | 0.4 | 3.6 | 
12 | Fc1ccc(OCCCN2CCCN(c3ccc(Cl)cc3)CC2)cc1 | 5.9 | 0.5 | 2.9 | 
13 | Clc1ccc(N2CCN(CCCOc3ccccc3)CC2)cc1 | 33 | 1.6 | 51.7 | 
14 | OC1(c2ccc(Cl)cc2)CC2CCC(C1)N2CCCSc1ccc(F)cc1 (stereo unspecified) |  |  | 81 | 
15 | OC1(c2ccc(Cl)cc2)CC2CCC(C1)N2CCCSc1cccc(F)c1 (stereo unspecified) | 8.1 | 8.8 | 71 | 
16 | O=C(CCCN1CCN(c2ccccn2)CC1)c1ccc(F)cc1 [AZAPERONE] | 52 | 7.8 | 403 | 
17 | O=C(CCCN1CCCN(c2ccccn2)CC1)c1ccc(F)cc1 | 32 | 14 |  | 457
18 | O=C(CCCN1CCCN(c2ncccn2)CC1)c1ccc(F)cc1 | 44 | 1.4 | 63 | 
19 | OC1(c2ccc(Cl)cc2)CC2CCC(C1)N2CCCCc1ccc(F)cc1 (stereo unspecified) | 27 | 0.8 | 22 | 
20 | Fc1ccc(SCCCN2CCCN(c3ccc(Cl)cn3)CC2)cc1 | 2.2 | 3.3 | 7.2 | 
21 | O/N=C(/CCCN1CCCN(c2ccc(Cl)cn2)CC1)c1ccc(F)cc1 | 2.7 | 41.8 | 113 | 
22 | O=C(CCCN1CCCN(c2ccc(Cl)cn2)CC1)c1ccc(F)cc1 | 8 | 3.8 | 30 | 
